Laboratory results taken from ChEMBL document CHEMBL1153992, “2-Azidoalkoxy-7-hydro-8-oxoadenine derivatives as TLR7 agonists inducing dendritic cell maturation” (Bioorg Med Chem Lett, 2009).
Active and inactive are the calls of the source. The rule behind the calls is not given here.

Tests used:
Format in all cases: cell-based
[1] = target: T1, Toll-like receptor 7 (Mus musculus) (UniProt P58681); assay: Induction of TLR7 receptor-mediated C57BL/6 mouse BMD cells activation assessed as upregulation of CD86 at 1 uM after 48 hrs by flow cytometry
T1 sequence (whole entry): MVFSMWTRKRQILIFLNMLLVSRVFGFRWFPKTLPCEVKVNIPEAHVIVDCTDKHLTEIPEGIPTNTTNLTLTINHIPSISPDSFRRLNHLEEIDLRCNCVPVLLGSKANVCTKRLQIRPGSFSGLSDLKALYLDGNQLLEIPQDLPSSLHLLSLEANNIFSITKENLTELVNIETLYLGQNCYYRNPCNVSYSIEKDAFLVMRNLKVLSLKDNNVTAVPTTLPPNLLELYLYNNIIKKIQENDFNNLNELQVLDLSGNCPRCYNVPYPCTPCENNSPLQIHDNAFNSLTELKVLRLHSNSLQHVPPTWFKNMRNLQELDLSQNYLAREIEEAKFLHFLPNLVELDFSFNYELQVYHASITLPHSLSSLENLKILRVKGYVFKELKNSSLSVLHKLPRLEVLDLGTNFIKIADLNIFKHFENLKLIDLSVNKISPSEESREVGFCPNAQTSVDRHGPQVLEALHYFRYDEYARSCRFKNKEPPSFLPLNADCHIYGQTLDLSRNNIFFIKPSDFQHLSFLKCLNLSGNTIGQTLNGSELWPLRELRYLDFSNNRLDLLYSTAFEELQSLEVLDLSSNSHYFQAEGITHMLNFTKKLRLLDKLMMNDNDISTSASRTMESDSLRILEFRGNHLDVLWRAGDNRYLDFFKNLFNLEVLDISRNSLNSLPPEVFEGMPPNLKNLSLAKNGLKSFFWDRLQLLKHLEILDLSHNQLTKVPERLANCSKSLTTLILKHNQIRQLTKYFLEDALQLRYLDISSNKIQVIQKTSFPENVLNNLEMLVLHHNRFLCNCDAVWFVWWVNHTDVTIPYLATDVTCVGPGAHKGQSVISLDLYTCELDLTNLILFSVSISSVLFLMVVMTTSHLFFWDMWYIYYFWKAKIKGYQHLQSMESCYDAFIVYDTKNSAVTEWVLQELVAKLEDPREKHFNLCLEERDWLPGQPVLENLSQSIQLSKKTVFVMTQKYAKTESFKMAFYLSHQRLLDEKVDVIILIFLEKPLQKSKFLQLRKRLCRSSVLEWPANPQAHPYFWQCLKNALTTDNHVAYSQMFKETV

[2] = target: T1, Toll-like receptor 7 (Mus musculus); assay: Induction of TLR7 receptor-mediated C57BL/6 mouse BMD cells activation assessed as upregulation of MHC class-2 at 1 uM after 48 hrs by flow cytometry
[3] = target: T1, Toll-like receptor 7 (Mus musculus); assay: Induction of TLR7 receptor-mediated C57BL/6 mouse BMD cells activation assessed as upregulation of CD40 at 1 uM after 48 hrs by flow cytometry
[4] = target: T1, Toll-like receptor 7 (Mus musculus); assay: Induction of TLR7 receptor-mediated C57BL/6 mouse BMD cells activation assessed as IL12 production at 5 uM after 24 hrs by ELISA
[5] = target: T1, Toll-like receptor 7 (Mus musculus); assay: Induction of TLR7 receptor-mediated C57BL/6 mouse BMD cells activation assessed as IL12 production at 0.1 uM after 24 hrs by ELISA
[6] = target: T1, Toll-like receptor 7 (Mus musculus); assay: Induction of TLR7 receptor-mediated C57BL/6 mouse BMD cells activation assessed as IL12 production at 10 nM after 24 hrs by ELISA

Compound	Activity [1]	Activity [2]	Activity [3]	Activity [4]	Activity [5]	Activity [6]
[N-]=[N+]=NCCOCCOc1nc(N)c2[nH]c(=O)n(Cc3ccccc3)c2n1	Active	Active	Active	Active		
COCCOc1nc(N)c2[nH]c(=O)n(Cc3ccccc3)c2n1	Active	Active	Active	Active		
[N-]=[N+]=NCCOc1nc(N)c2[nH]c(=O)n(Cc3ccccc3)c2n1	Active	Active	Active	Active	Active	
CCOCc1nc2c(N)nc3ccccc3c2n1CC(C)(C)O	Active	Active	Active	Active		
CCCCOc1nc(N)c2[nH]c(=O)n(Cc3ccccc3)c2n1	Active	Active	Active	Active		Active
[N-]=[N+]=NCCOCCOCCOc1nc(N)c2[nH]c(=O)n(Cc3ccccc3)c2n1	inactive	inactive	inactive			

Now from value to compound:

Activity [1]	Activity [2]	Activity [3]	Activity [4]	Activity [5]	Activity [6]	Compound
Active	Active	Active	Active			[N-]=[N+]=NCCCCOc1nc(N)c2[nH]c(=O)n(Cc3ccccc3)c2n1
Active	Active	Active	Active	Active		[N-]=[N+]=NCCCOc1nc(N)c2[nH]c(=O)n(Cc3ccccc3)c2n1
Active	Active	Active	Active			[N-]=[N+]=NCCCCCCOc1nc(N)c2[nH]c(=O)n(Cc3ccccc3)c2n1
Active	Active	Active	Active			[N-]=[N+]=NCCCCCOc1nc(N)c2[nH]c(=O)n(Cc3ccccc3)c2n1
